One molecule from paper PMC12172032, “Chemical and Genetic Validation of an Essential Calcium Entry Channel of Trypanosoma brucei as a Therapeutic Target” (ACS Infectious Diseases, 2025) can be followed below.

The target of the experiment is T1, TbCaV (TbCav; FS179; TbCaCh) (Trypanosoma brucei, UniProt Q38BV7).
T1 construct: gene Tb10.70.4750; native full-length channel in intact T. brucei cells, 2693 aa, approx. 301 kDa, single subunit, untagged wild type
The experiment is described as follows: Ca2+ entry into intact T. brucei, Cal-590 fluorescence. Format: cell-based. The note with it: wild-type T. brucei BSF (Figure 9A inset); 1.8 mM Ca2+ added after 100 μM EGTA, BAG buffer pH 7.0; whole-cell Ca2+ entry attributed to TbCaV, direct binding not shown.

T1 sequence (Q38BV7 1-2693): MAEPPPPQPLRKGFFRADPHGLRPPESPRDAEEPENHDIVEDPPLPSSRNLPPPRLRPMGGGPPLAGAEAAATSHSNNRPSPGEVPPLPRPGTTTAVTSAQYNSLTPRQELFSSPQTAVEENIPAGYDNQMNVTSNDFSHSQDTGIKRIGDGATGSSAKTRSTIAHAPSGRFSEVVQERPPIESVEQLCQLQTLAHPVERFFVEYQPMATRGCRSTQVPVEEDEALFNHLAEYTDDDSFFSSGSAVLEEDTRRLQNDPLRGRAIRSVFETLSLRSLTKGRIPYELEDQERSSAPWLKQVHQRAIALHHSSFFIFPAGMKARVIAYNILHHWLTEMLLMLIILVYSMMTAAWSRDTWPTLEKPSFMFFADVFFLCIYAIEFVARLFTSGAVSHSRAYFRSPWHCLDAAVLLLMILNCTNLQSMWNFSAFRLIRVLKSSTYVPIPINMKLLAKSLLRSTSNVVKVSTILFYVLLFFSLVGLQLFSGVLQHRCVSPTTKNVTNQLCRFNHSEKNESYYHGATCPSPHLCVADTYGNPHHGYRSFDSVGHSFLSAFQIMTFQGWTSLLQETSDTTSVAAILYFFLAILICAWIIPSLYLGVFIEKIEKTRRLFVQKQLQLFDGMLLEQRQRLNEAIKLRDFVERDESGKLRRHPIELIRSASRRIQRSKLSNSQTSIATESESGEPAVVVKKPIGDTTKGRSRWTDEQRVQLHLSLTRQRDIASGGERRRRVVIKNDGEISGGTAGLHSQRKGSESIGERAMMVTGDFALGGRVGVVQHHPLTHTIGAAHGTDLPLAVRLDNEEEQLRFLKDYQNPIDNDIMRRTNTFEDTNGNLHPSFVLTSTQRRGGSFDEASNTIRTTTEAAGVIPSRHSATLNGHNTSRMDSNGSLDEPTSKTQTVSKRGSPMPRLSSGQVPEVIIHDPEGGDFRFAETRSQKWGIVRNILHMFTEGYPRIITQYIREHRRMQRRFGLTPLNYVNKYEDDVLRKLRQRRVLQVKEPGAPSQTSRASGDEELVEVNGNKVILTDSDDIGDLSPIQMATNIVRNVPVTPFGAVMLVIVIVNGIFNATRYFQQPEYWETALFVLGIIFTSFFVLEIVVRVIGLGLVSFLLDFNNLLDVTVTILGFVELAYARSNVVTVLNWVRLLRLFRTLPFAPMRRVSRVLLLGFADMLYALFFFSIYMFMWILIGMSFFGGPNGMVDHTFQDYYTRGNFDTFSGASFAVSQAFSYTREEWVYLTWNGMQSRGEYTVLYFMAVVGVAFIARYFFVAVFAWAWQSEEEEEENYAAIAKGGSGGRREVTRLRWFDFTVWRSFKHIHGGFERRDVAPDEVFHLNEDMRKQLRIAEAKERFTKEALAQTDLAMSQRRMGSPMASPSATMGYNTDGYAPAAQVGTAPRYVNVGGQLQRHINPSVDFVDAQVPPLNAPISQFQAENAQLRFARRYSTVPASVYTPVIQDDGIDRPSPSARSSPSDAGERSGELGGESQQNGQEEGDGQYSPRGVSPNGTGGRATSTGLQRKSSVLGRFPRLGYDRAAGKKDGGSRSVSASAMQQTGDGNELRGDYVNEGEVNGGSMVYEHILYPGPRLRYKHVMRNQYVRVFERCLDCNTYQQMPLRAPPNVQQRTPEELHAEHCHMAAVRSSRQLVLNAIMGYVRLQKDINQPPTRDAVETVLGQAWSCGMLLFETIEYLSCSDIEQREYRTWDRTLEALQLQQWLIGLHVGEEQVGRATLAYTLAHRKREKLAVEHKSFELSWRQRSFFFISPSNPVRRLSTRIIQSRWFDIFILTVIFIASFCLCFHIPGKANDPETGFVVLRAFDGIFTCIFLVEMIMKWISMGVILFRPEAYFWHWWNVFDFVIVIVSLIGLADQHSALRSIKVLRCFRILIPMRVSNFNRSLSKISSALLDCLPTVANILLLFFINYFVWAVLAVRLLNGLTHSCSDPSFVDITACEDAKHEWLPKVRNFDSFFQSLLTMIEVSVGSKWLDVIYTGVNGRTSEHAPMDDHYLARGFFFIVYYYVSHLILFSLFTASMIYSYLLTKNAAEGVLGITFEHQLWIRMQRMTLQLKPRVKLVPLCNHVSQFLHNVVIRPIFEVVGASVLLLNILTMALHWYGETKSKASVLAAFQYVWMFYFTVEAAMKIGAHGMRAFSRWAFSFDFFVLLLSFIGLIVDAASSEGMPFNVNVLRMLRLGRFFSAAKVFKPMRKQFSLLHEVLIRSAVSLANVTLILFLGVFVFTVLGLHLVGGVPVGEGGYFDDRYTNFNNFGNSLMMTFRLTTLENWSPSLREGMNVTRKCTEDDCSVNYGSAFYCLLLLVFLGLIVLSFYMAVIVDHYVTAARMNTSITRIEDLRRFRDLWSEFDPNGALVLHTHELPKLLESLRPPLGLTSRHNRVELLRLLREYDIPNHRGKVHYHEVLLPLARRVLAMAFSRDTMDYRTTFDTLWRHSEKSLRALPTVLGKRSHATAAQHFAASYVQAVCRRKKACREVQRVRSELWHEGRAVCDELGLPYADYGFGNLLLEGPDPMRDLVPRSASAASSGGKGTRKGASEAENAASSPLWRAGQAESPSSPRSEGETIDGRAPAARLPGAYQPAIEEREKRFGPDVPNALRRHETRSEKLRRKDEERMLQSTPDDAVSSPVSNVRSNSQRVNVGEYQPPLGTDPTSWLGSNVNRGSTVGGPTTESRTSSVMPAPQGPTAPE

Broadly, the IC50 is the concentration at which inhibition is half-maximal. In the case of `CC(=O)Nc1ccc([N+](=O)[O-])c2nonc12` [NBD-A, N-(7-nitro-2,1,3-benzoxadiazol-4-yl) acetamide], the IC50 was determined as 1460 ± 30 nM.
